Assay results as given in paper PMC12186844 (ACS Chemical Neuroscience, 2025).

Experiments:
SNAP-D2SR F353^6.44A [1] = biological target: T1, SNAP-D2SR F353^6.44A (Homo sapiens, UniProt P14416, F382A); test: functional cAMP assay, BRET biosensor; type: cell-based
Method: (§1) Flp-In-CHO cells stably coexpressing the CAMYEL biosensor and DRs were plated into white 96-well CulturPlates (Revvity) and grown overnight. The cells were equilibrated in Hank’s balanced salt solution (HBSS) at 37 °C (or 25 °C when indicated) before starting the experiment. The cells were costimulated with the agonists and 10 μM forskolin for the indicated time frames when the BRET readings were captured. Coelenterazine (Nanolight Technology, AZ) was added at a final concentration of 5 μM at least 3 min prior to measurement. […] Net BRET was determined by subtraction of the vehicle control coadded with 10 μM forskolin.
(§2) Dose–response curves were fitted using the following three-parameter equation: response=bottom+top−bottom/1+10^(logEC50−log[A]) 5 where top and bottom represent the maximal and minimal asymptote of the dose response curve, [A] is the molar concentration of the agonist, and EC50 is the molar concentration of the agonist required to give a response half-way between bottom and top.

SNAP-D2SR E95^2.65A = SNAP-D2SR E95^2.65A (Homo sapiens, UniProt P14416, E95A); test: functional cAMP assay, BRET biosensor; type: cell-based
Method: (§3) Flp-In-CHO cells stably coexpressing the CAMYEL biosensor and DRs were plated into white 96-well CulturPlates (Revvity) and grown overnight. The cells were equilibrated in Hank’s balanced salt solution (HBSS) at 37 °C (or 25 °C when indicated) before starting the experiment. The cells were costimulated with the agonists and 10 μM forskolin for the indicated time frames when the BRET readings were captured. Coelenterazine (Nanolight Technology, AZ) was added at a final concentration of 5 μM at least 3 min prior to measurement. […] Net BRET was determined by subtraction of the vehicle control coadded with 10 μM forskolin. For phenoxybenzamine alkylation experiments, the cells were treated with 0.1, 0.3, or 1 μM phenoxybenzamine (Sigma-Aldrich) diluted in HBSS and equilibrated at 37 °C for 30 min prior to the commencement of the assay.
as §2

D2LR [2] = biological target: T2, D2LR (Homo sapiens, UniProt P14416); test: inhibition of forskolin-stimulated cAMP production, BRET biosensor; type: cell-based;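 also: Flp-In-CHO cells stably expressing CAMYEL cAMP BRET sensor, agonist plus 10 µM forskolin, net BRET after forskolin-vehicle subtraction, parameters from complete operational model of allosterism and agonism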
Method: as §1, §2

SNAP-D2SR C118^3.36A = biological target: T3, SNAP-D2SR C118^3.36A (Homo sapiens, UniProt P14416, C118A); test: cell membrane [3H]spiperone assay
T3 sequence (P14416 1-414 isoform P14416-2 C118A): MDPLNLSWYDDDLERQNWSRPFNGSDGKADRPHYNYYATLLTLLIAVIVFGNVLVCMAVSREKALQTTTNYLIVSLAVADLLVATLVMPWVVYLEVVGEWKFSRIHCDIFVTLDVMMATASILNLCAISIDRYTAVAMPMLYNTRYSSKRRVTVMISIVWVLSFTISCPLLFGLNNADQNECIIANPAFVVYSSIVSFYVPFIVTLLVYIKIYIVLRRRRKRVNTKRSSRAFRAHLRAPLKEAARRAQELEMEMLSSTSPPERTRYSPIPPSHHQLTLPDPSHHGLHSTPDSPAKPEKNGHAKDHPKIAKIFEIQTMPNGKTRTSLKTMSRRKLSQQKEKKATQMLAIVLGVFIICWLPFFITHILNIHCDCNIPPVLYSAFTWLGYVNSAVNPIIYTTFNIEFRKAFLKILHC
Method: (§4) Flp-In-CHO cells stably expressing the wild-type or mutant DRs were grown to 90% confluence in 175 cm^2 cell culture flasks. The cells were harvested in PBS containing 2 mM EDTA and centrifuged at 300g for 3 min. The resulting pellet was resuspended in ice-cold assay buffer (20 mM HEPES, 100 mM NaCl, 6 mM MgCl2, 1 mM EGTA, and 1 mM EDTA, pH 7.4), and the centrifugation step was repeated. The intact cell pellet was then resuspended in assay buffer and homogenized using a Polytron homogenizer. After centrifugation (1000g, 10 min), the pellet was discarded, and the supernatant was recentrifuged at 30,000g for 1 h at 4 °C using a Sorvall Evolution RC ultracentrifuge (Thermo Scientific). The resulting pellet was resuspended in assay buffer and stored in 250 μL aliquots at −80 °C. Membrane protein concentration was determined using a Pierce’s BCA protein assay kit (Thermo Fisher, Melbourne).
(§5) [^3H]­Spiperone binding experiments using cell membranes were conducted in a 200 μL reaction volume in assay buffer (20 mM HEPES, 100 mM NaCl, 6 mM MgCl2, 1 mM EGTA, and 1 mM EDTA, pH 7.4) containing 100 μM GppNHp and 0.1% ascorbic acid in 96-well plates. […] In all cases, nonspecific binding was determined in the presence of 10 μM haloperidol. […] Filter bound radioactivity was detected as a chemiluminescence after the addition of MicroScint-20 (Revvity) in a MicroBeta plate counter (Revvity). […]

SNAP-D2SR W100^ECL1A = SNAP-D2SR W100^ECL1A (Homo sapiens, UniProt P14416, W100A); test: functional cAMP assay, BRET biosensor; type: cell-based
Method: as §3, §2

SNAP-D2SR I73^2.43A = SNAP-D2SR I73^2.43A (Homo sapiens, UniProt P14416, I73A); test: functional cAMP assay, BRET biosensor; type: cell-based; design: expressed in transfected cells
Method: as §1, §2

SNAP-D2SR F353^6.44A [3] = biological target: T1, SNAP-D2SR F353^6.44A; test: cell membrane [3H]spiperone assay
Method: as §4, §5

D2LR [4] = biological target: T2, D2LR; test: whole cell [3H]raclopride binding assay
Method: The binding reaction was conducted in HBSS for 1 h at 37 °C. The adherent cells were washed two times with cold 0.9% NaCl solution, and 100 μL/well scintilation liquid was added to the plate. The remaining radioactivity was detected in a MicroBeta counter.

[5] = read-out: D2 PAM2 KB (converted)
[6] = with S-(3)-PPP, listed as D2 PAM
[7] = cooperativity with [3H]raclopride
[8] = cooperativity with aripiprazole
[9] = cooperativity with bromocriptine
[10] = orthosteric ligand [3H]raclopride
[11] = orthosteric ligand aripiprazole
[12] = orthosteric ligand bromocriptine
[13] = titration of D2 PAM2 vs [3H]raclopride
[14] = titration, cooperativity with [3H]raclopride

T2 sequence (P14416 whole entry): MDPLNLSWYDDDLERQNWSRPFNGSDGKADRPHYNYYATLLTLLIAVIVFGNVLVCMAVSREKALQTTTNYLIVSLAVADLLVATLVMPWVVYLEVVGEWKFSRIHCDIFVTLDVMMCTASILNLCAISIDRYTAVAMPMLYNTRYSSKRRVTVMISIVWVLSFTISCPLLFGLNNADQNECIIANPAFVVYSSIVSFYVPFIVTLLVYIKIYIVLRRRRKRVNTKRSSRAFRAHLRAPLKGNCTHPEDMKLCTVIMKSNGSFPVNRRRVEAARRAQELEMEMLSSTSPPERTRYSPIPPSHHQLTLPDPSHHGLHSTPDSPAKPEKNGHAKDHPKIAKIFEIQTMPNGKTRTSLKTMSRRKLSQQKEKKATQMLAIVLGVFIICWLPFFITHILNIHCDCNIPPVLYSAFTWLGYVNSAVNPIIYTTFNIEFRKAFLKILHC
Sequence of SNAP-D2SR I73^2.43A (P14416 1-414 isoform P14416-2 I73A): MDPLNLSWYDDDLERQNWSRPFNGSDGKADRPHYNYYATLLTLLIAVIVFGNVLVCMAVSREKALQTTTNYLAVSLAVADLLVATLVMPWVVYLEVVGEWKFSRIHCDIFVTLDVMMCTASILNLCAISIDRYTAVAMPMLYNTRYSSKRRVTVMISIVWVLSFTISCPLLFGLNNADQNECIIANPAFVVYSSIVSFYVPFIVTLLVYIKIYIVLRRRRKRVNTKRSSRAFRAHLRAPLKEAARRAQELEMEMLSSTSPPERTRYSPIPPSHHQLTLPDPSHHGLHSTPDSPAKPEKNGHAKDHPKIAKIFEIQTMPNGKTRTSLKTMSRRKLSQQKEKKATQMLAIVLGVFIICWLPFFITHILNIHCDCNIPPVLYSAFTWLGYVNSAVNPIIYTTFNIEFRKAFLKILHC
Sequence of SNAP-D2SR W100^ECL1A (P14416 1-414 isoform P14416-2 W100A): as the sequence (P14416 1-414 isoform P14416-2 I73A) above, with A73I, W100A counted along it
T1 sequence (P14416 1-414 isoform P14416-2 F353A): as the sequence (P14416 1-414 isoform P14416-2 I73A) above, with A73I, F353A counted along it
Sequence of SNAP-D2SR E95^2.65A (P14416 1-414 isoform P14416-2 E95A): as the sequence (P14416 1-414 isoform P14416-2 I73A) above, with A73I, E95A counted along it

- D2 PAM2 log τ (SNAP-D2SR F353^6.44A [1]): –1.06 ± 0.21
- D2 PAM2 pKB (SNAP-D2SR F353^6.44A [1]): 5.13 ± 0.16
- D2 PAM2 τ (SNAP-D2SR F353^6.44A [1]): 0.09
- Kb (SNAP-D2SR F353^6.44A [1]; [5]): 7.4 µM
- D2 PAM2 log αβ (SNAP-D2SR F353^6.44A [1]; with DA): 1.06 ± 0.21
- D2 PAM2 αβ (SNAP-D2SR F353^6.44A [1]; with DA): 11
- Kb (SNAP-D2SR E95^2.65A): 3.2 µM
- Logτ (SNAP-D2SR E95^2.65A): -0.46 ± 0.07
- pKB (SNAP-D2SR E95^2.65A): 5.49 ± 0.12
- τ (SNAP-D2SR E95^2.65A): 0.35
- Logαβ (SNAP-D2SR E95^2.65A; with DA): 1.07 ± 0.10
- αβ (SNAP-D2SR E95^2.65A; with DA): 11.7
- agonism, fold lower than that of aripiprazole (D2LR [2]; D2 PAM2 alone, high D2R expression levels): approximately 2 fold
- pKB (D2LR [2]; cAMP): 5.37 ± 0.04
- LogτB (D2LR [2]; cAMP, intrinsic efficacy): -0.96 ± 0.04
- Logαβ (D2LR [2]; cAMP, with dopamine): 1.41 ± 0.04
- Kb (D2LR [2]; operational model of allostery, with DA): 5.5 µM
- Logαβ (D2LR [2]; with S-(3)-PPP): 1.46 ± 0.16
- Logβ (D2LR [2]; with S-(3)-PPP): 1.06
- β (D2LR [2]; with S-(3)-PPP): 11.5
- αβ (D2LR [2]; [6]): 28
- β (D2LR [2]; [6]): 11
- Logαβ (D2LR [2]; with apomorphine): 1.21 ± 0.13
- Logβ (D2LR [2]; with apomorphine): 0.16
- αβ (D2LR [2]; with apomorphine): 16
- β (D2LR [2]; with apomorphine): 1.4
- Logαβ (D2LR [2]; with aripiprazole): 1.61 ± 0.14
- Logβ (D2LR [2]; with aripiprazole): 1.18
- αβ (D2LR [2]; with aripiprazole): 41
- β (D2LR [2]; with aripiprazole): 15
- Logαβ (D2LR [2]; with bromocriptine): 0.76 ± 0.13
- Logβ (D2LR [2]; with bromocriptine): 0.49
- αβ (D2LR [2]; with bromocriptine): 5.8
- β (D2LR [2]; with bromocriptine): 3.1
- Logαβ (D2LR [2]; with dopamine): 1.35 ± 0.10
- Logβ (D2LR [2]; with dopamine): 0.02
- αβ (D2LR [2]; with dopamine): 22
- β (D2LR [2]; with dopamine): 1
- β (D2LR [2]; with dopamine, listed as D2 PAM): 1.0
- Logαβ (D2LR [2]; with lisuride): 0.66 ± 0.06
- Logβ (D2LR [2]; with lisuride): 0.11
- αβ (D2LR [2]; with lisuride): 4.6
- β (D2LR [2]; with lisuride): 1.3
- Logαβ (D2LR [2]; with pergolide): 1.50 ± 0.15
- Logβ (D2LR [2]; with pergolide): 0.26
- αβ (D2LR [2]; with pergolide): 32
- β (D2LR [2]; with pergolide): 1.8
- Logαβ (D2LR [2]; with pramipexole): 1.37 ± 0.12
- Logβ (D2LR [2]; with pramipexole): 0.16
- αβ (D2LR [2]; with pramipexole): 23
- β (D2LR [2]; with pramipexole): 1.4
- Logαβ (D2LR [2]; with ropirinole): 1.67 ± 0.12
- Logβ (D2LR [2]; with ropirinole): 0.53
- αβ (D2LR [2]; with ropirinole): 47
- β (D2LR [2]; with ropirinole): 3.4
- Logαβ (D2LR [2]; with rotigotine): 1.17 ± 0.09
- Logβ (D2LR [2]; with rotigotine): -0.20
- αβ (D2LR [2]; with rotigotine): 15
- β (D2LR [2]; with rotigotine): 0.6
- fold shift + 10 μM PAM (SNAP-D2SR C118^3.36A; shift of DA IC50): 2 fold
- ΔpIC50 + 10 μM PAM (SNAP-D2SR C118^3.36A; shift of DA pIC50): 0.31 ± 0.10
- Kb (SNAP-D2SR W100^ECL1A): 11.7 µM
- Logτ (SNAP-D2SR W100^ECL1A): -0.43 ± 0.06
- pKB (SNAP-D2SR W100^ECL1A): 4.93 ± 0.28
- τ (SNAP-D2SR W100^ECL1A): 0.37
- Logαβ (SNAP-D2SR W100^ECL1A; with DA): 1.54 ± 0.10
- αβ (SNAP-D2SR W100^ECL1A; with DA): 34.7
- D2 PAM2 log τ (SNAP-D2SR I73^2.43A): –1.11 ± 0.16
- D2 PAM2 pKB (SNAP-D2SR I73^2.43A): 5.24 ± 0.16
- D2 PAM2 τ (SNAP-D2SR I73^2.43A): 0.08
- fold decrease in cooperativity with DA (SNAP-D2SR I73^2.43A; cAMP): 2.8 fold
- Kb (SNAP-D2SR I73^2.43A; [5]): 6 µM
- D2 PAM2 log αβ (SNAP-D2SR I73^2.43A; with DA): 0.79 ± 0.07
- D2 PAM2 αβ (SNAP-D2SR I73^2.43A; with DA): 6.1
- fold shift + 10 μM PAM (SNAP-D2SR F353^6.44A [3]; shift of DA IC50): 1.3 fold
- ΔpIC50 + 10 μM PAM (SNAP-D2SR F353^6.44A [3]; shift of DA pIC50): 0.10 ± 0.12
- fold inhibition of [3H]raclopride affinity (D2LR [4]): 2.43 fold
- Logα (D2LR [4]; cooperativity with S-(3)-PPP): 0.40 ± 0.11
- α (D2LR [4]; cooperativity with S-(3)-PPP): 2.5
- Logα (D2LR [4]; [7]): -0.39 ± 0.12
- α (D2LR [4]; [7]): −0.39
- α (D2LR [4]; cooperativity with [3H]raclopride, listed as D2 PAM): 0.41
- Logα (D2LR [4]; cooperativity with apomorphine): 1.05 ± 0.11
- α (D2LR [4]; cooperativity with apomorphine): 11
- Logα (D2LR [4]; [8]): 0.43 ± 0.10
- α (D2LR [4]; [8]): 2.7
- Logα (D2LR [4]; [9]): 0.27 ± 0.07
- α (D2LR [4]; [9]): 1.9
- Logα (D2LR [4]; cooperativity with dopamine): 1.33 ± 0.10
- α (D2LR [4]; cooperativity with dopamine): 22
- α (D2LR [4]; cooperativity with dopamine, listed as D2 PAM): 21
- Logα (D2LR [4]; cooperativity with lisuride): 0.55 ± 0.04
- α (D2LR [4]; cooperativity with lisuride): 3.5
- Logα (D2LR [4]; cooperativity with pergolide): 1.24 ± 0.14
- α (D2LR [4]; cooperativity with pergolide): 17
- Logα (D2LR [4]; cooperativity with pramipexole): 1.21 ± 0.11
- α (D2LR [4]; cooperativity with pramipexole): 16
- Logα (D2LR [4]; cooperativity with ropirinole): 1.14 ± 0.11
- α (D2LR [4]; cooperativity with ropirinole): 14
- Logα (D2LR [4]; cooperativity with rotigotine): 1.37 ± 0.09
- α (D2LR [4]; cooperativity with rotigotine): 23
- Kb (D2LR [4]; orthosteric ligand S-(3)-PPP): 5.12 µM
- pKB (D2LR [4]; orthosteric ligand S-(3)-PPP): 5.29 ± 0.05
- Kb (D2LR [4]; [10]): 5.5 µM
- pKB (D2LR [4]; [10]): 5.26 ± 0.10
- Kb (D2LR [4]; orthosteric ligand apomorphine): 6.31 µM
- pKB (D2LR [4]; orthosteric ligand apomorphine): 5.20 ± 0.10
- Kb (D2LR [4]; [11]): 7.24 µM
- pKB (D2LR [4]; [11]): 5.14 ± 0.04
- Kb (D2LR [4]; [12]): 8.12 µM
- pKB (D2LR [4]; [12]): 5.09 ± 0.13
- Kb (D2LR [4]; orthosteric ligand dopamine): 5.5 µM
- pKB (D2LR [4]; orthosteric ligand dopamine): 5.26 ± 0.10
- Kb (D2LR [4]; orthosteric ligand lisuride): 5.62 µM
- pKB (D2LR [4]; orthosteric ligand lisuride): 5.25 ± 0.07
- Kb (D2LR [4]; orthosteric ligand pergolide): 8.32 µM
- pKB (D2LR [4]; orthosteric ligand pergolide): 5.08 ± 0.10
- Kb (D2LR [4]; orthosteric ligand pramipexole): 6.92 µM
- pKB (D2LR [4]; orthosteric ligand pramipexole): 5.16 ± 0.11
- Kb (D2LR [4]; orthosteric ligand ropirinole): 8.71 µM
- pKB (D2LR [4]; orthosteric ligand ropirinole): 5.06 ± 0.06
- Kb (D2LR [4]; orthosteric ligand rotigotine): 4.68 µM
- pKB (D2LR [4]; orthosteric ligand rotigotine): 5.33 ± 0.14
- Kb (D2LR [4]; read-out: Kb, affinity for the unoccupied receptor, DA competition, allosteric ternary complex model): 5.5 µM
- Kb (D2LR [4]; [13]): 5.5 µM
- pKb (D2LR [4]; [13]): 5.26
- Logα (D2LR [4]; [14]): -0.37
- α (D2LR [4]; [14]): 0.43
SMILES: COc1cc(CO)c(F)cc1C(=O)n1ccc2c(F)cccc21 [D2 PAM2, [5-fluoro-4-(hydroxymethyl)-2-methoxyphenyl]-(4-fluoro-1H-indol-1-yl)methanone]
